Measured values published in US11376215B2, “Feed composition for improving intraintestinal environment” (AJINOMOTO CO., INC., priority 2017, dated 2022).

Key:
Assay type in all cases: cell-based
bifidobacteria [1] = assay: Experimental Example 1-2: addition test of amino acid and fructo-oligosaccharide to human feces suspension; conditions: amino acid added together with 0.5% FOS, anaerobic culture 4 days, quantitative PCR, compared with FOS alone
Method: (§1) Thereafter, 10 ml of each solution was dispensed into glass vials and the glass vials were sterilized by autoclave, made anaerobic, and sealed with a butyl rubber stopper. The feces suspension was prepared by collecting about 10 g of feces from 3 healthy individuals (one man and two women) in their 20s to 40s and suspending same in 80 ml of anaerobic PBS. The feces suspension was added to each vial by 0.5 ml, placed in an incubator at 37° C., and anaerobically cultured for 4 days with tumble blending once per day. After completion of the culture, an intestinal bacterial pellet was obtained from the entire amount of the culture medium by centrifugation (8,000×g, 5 min). DNA was extracted from this pellet using ISOFECAL for BeadsBeat (manufactured by NIPPON GENE CO., LTD.), and quantitative PCR was performed using GeneAce SYBR qPCR Mix α (manufactured by NIPPON GENE CO., LTD.). Quantitative PCR was performed under the conditions of 45 cycles of 95° C. for 30 sec and 60° C. for 60 sec after 95° C. for 10 min. Primers for quantitative PCR used for detection bifidobacteria are as follows:
The PBS solutions for the Examples and Comparative Examples shown in Table 1-2 were prepared and used as media for a feces culture. […]
(§2) Using the results obtained by quantitative PCR, the relative amount when the control is 1 was calculated, and the results were normalized with z-score.

bifidobacteria [2] = assay: Experimental Example 1-1: addition test of amino acid and fructo-oligosaccharide to human feces suspension; conditions: amino acid added together with 0.5% FOS, anaerobic culture 4 days at 37° C., quantitative PCR, compared with FOS alone
Method: The PBS solutions for the Examples and Comparative Examples shown in Table 1-1 were prepared and used as media for a feces culture. PBS alone was used as a control. Fructo-oligosaccharide (FOS) manufactured by Wako Pure Chemical Industries, Ltd. (#064-02385) was used.
as §1, §2

bifidobacteria [3] = assay: Experimental Example 2: addition test of amino acid and galacto-oligosaccharide to human feces suspension; conditions: amino acid added together with 0.5% GOS, anaerobic culture 4 days, quantitative PCR, compared with GOS alone
Method: as §1
The PBS solutions for the Examples and Comparative Examples shown in Table 2 were prepared and used as media for a feces culture. […]
as §2

Row | SMILES | proliferation of bifidobacteria (bifidobacteria [1]) | proliferation of bifidobacteria (bifidobacteria [2]) | proliferation of bifidobacteria (bifidobacteria [3])
1 | N[C@@H](Cc1c[nH]cn1)C(=O)O [His, L-histidine] | greater proliferation of bifidobacteria than that with FOS alone | – | –
2 | NC(=O)CC[C@H](N)C(=O)O [Gln, L-glutamine] | – | greater proliferation of bifidobacteria than that with FOS alone | –
3 | C[C@H](N)C(=O)O [Ala, L-alanine] | – | greater proliferation of bifidobacteria than that with FOS alone | –
4 | CC(C)[C@H](N)C(=O)O [Val, L-valine] | – | greater proliferation of bifidobacteria than that with FOS alone | –
5 | N[C@@H](CCC(=O)O)C(=O)O [Glu, L-glutamic acid] | – | greater proliferation of bifidobacteria than that with FOS alone | greater proliferation of bifidobacteria than that with GOS alone
6 | O=C(O)[C@@H]1CCCN1 [Pro, L-proline] | greater proliferation of bifidobacteria than that with FOS alone | – | –
7 | CC[C@H](C)[C@H](N)C(=O)O [Ile, L-isoleucine] | – | greater proliferation of bifidobacteria than that with FOS alone | –
8 | NCCCC[C@H](N)C(=O)O [Lys, L-lysine] | – | greater proliferation of bifidobacteria than that with FOS alone | greater proliferation of bifidobacteria than that with GOS alone
